Converted amounts (≈) assume the structure as drawn. Where two headings read alike, the source gives them in different places.
Key:
FmlHLD [1] = target: T1, FmlHLD (Escherichia coli, UniProt P77588); assay: biochemical; type: binding, E. coli; conditions: for PI100 (percent inhibition): galactoside at 100 μM, 100 µM; for inhibitory potency against FmlH, in words: ELISA-based competition assay
T1 construct: 6xHis (C); made in house; host or cells: E. coli C600, periplasm, pTRC99a
How it was run: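 Sialidase-treated bovine submaxillary mucin (ds-BSM) coated wells, BSA-blocked, then biotinylated FmlH^LD (20 μg/mL) with or without compound for 1 h at room temperature. Bound lectin detected by streptavidin-HRP/TMB, A450.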

FmlHLD [2] = target: T1, FmlHLD; assay: biochemical; type: binding, E. coli
Description: Bio-layer interferometry (BLI) was used to quantitate the binding affinity of select galactosides to FmlH.
Thereafter, pins were dipped in PBS for 120 s and transferred to protein samples (varying concentration of FmlHLD or fixed concentration of FmlHLD with varying concentration of galactoside compounds) for association for 300-600 s.

[3] = Stability in simulated gastric fluid (SGF); type: in vitro ADME
Protocol: (§1) These compounds were assessed for their stability in simulated gastric fluid (SGF), simulated intestinal fluid (SIF), mouse liver microsomes, and blood plasma (Table 7). […] These findings are consistent with our earlier characterization of FimH antagonists (mannosides).

[4] = Stability in simulated intestinal fluid (SIF); type: in vitro ADME
Protocol: as §1

[5] = Mouse liver microsome stability; type: in vitro ADME
Protocol: as §1

Mouse plasma stability = type: in vitro ADME
Protocol: as §1

Kinetic solubility = type: physicochemical
[6] = Mouse pharmacokinetics, IP injection; conditions: 20 mg/kg IP
Protocol: These studies were conducted via 20 mg/kg intraperitoneal (IP) injection to inform planned future IP studies in murine studies of chronic UTI, which require a single IP dose of galactoside to persist in the plasma for 6 hours prior to measurement of bladder bacterial burdens (FIG. 17)^22.

[7] = Rat pharmacokinetics, plasma and urine, IV and PO; type: in vivo; conditions: for bioavailability: in vivo, 10 mg/kg PO vs 3 mg/kg IV, read-out: oral bioavailability (F); for bioavailability / renal clearance to the urine: rat
Protocol: In this example, the concentration of compounds 3086 and 3090 in rat plasma and urine following either a 10 mg/kg oral dose (PO; circular dots) or a 3 mg/kg intravenous dose (IV; square dots) was determined (FIG. 16, panel A (3086) and panel B (3090)). […] Thus, the metabolic stability of these compounds and clearance of these compounds has no relation to the permeability (oral or otherwise) of compounds. The highly polar nature of these molecules containing the sugar GalNAc and multiple polar functionalities precludes their permeability in the gut.

[8] = mean with standard error of the mean
[9] = read-out: PI1 (percent inhibition), galactoside at 1 μM, mean with standard error of the mean
[10] = read-out: PI10 (percent inhibition), galactoside at 10 μM, mean with standard error of the mean
[11] = read-out: PI100 (percent inhibition), galactoside at 100 μM, mean with standard error of the mean
[12] = Kd (μM), inhibitory constants, fixed FmlHLD, varying galactoside in solution, immobilized ser-TF
[13] = read-out: % Inhibition at [μM] [1], compound at 1 μM, inhibition of FmlHLD binding to ds-BSM
[14] = read-out: % Inhibition at [μM] [10], compound at 10 μM, inhibition of FmlHLD binding to ds-BSM
[15] = read-out: % Inhibition at [μM] [100], compound at 100 μM, inhibition of FmlHLD binding to ds-BSM
[16] = IC50 (μM), Table 6, sulfonamides 3078-3090
[17] = rat plasma, 10 mg/kg PO or 3 mg/kg IV

T1 sequence (P77588 25-182): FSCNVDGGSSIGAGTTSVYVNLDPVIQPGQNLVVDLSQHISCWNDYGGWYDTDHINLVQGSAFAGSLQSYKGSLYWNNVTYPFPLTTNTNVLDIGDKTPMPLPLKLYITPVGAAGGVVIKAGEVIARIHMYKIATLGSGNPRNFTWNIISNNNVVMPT

## COc1ccccc1O[C@@H]1O[C@H](CO)[C@H](O)[C@H](O)[C@H]1O [Compound 5β, 2-methoxyphenyl β-D-galactopyranoside]
FmlHLD [1]; [8]
  PI100 (percent inhibition): 97.2 ± 0.4%
FmlHLD [1]; [9]
  inhibition at 1 µM: 10 ± 4.3%
FmlHLD [1]; [10]
  inhibition at 10 µM: 55.7 ± 1.6%
FmlHLD [1]; [11]
  inhibition at 100 µM: 97%
FmlHLD [2]; [12]
  Kd: 6.5 ± 1.4 µM

## OC[C@H]1O[C@@H](Oc2cccc3cccnc23)[C@H](O)[C@@H](O)[C@H]1O [Compound 8HQG, reference compound]
FmlHLD [1]; [13]
  inhibition at 1 µM: 19.2%
FmlHLD [1]; [14]
  inhibition at 10 µM: 48.1%
FmlHLD [1]; [15]
  inhibition at 100 µM: 95.1%
FmlHLD [2]; Kd
  Kd: 7.1 µM

## OC[C@H]1O[C@@H](Oc2cccc3cccnc23)[C@H](O)[C@@H](O)[C@H]1O [Compound 20β]
FmlHLD [1]; [8]
  PI100 (percent inhibition): 95.1 ± 1.1%
FmlHLD [1]; [9]
  inhibition at 1 µM: 19.2 ± 2.8%
FmlHLD [1]; [10]
  inhibition at 10 µM: 48.1 ± 2%
FmlHLD [1]; [11]
  inhibition at 100 µM: 95%
FmlHLD [2]; [12]
  Kd: 7.1 ± 2.3 µM

## O=C(O)c1cccc(-c2ccccc2O[C@@H]2O[C@H](CO)[C@H](O)[C@H](O)[C@H]2O)c1 [Compound 29β, 2′-(α/β-D-galactopyranosyloxy)-[1,1′-Biphenyl]-3-carboxylic acid]
FmlHLD [1]; galactoside at 10 μM, mean with standard error of the mean, 10 µM
  PI10 (percent inhibition): 75.1 ± 1.0%
FmlHLD [1]; [9]
  inhibition at 1 µM: 22.9 ± 5.1%
FmlHLD [1]; [10]
  inhibition at 10 µM: 75%
FmlHLD [1]; [11]
  inhibition at 100 µM: 99%
FmlHLD [2]; BLI Kd ratio
  enhancement in binding affinity relative to Gal: ~330 fold

## COc1ccccc1O[C@@H]1O[C@H](CO)[C@H](O)[C@H](O)[C@H]1O [Compound 149e]
FmlHLD [1]; [13]
  inhibition at 1 µM: 9.99%
FmlHLD [1]; [14]
  inhibition at 10 µM: 55.7%
FmlHLD [1]; [15]
  inhibition at 100 µM: 97.2%
FmlHLD [2]; Kd
  Kd: 6.5 µM

## CC(=O)N[C@H]1[C@H](Oc2ccccc2-c2cccc(C(=O)O)c2)O[C@H](CO)[C@H](O)[C@@H]1O [Compound 200b-GalNAc]
FmlHLD [1]; [13]
  inhibition at 1 µM: 35.1%
FmlHLD [1]; [14]
  inhibition at 10 µM: 93%
FmlHLD [1]; [15]
  inhibition at 100 µM: 99.5%
FmlHLD [2]; Kd
  Kd: 0.089 µM

## O=C(O)c1cccc(-c2ccccc2O[C@@H]2O[C@H](CO)[C@H](O)[C@H](O)[C@H]2O)c1 [Compound 200b]
FmlHLD [1]; [13]
  inhibition at 1 µM: 12.3%
FmlHLD [1]; [14]
  inhibition at 10 µM: 75.1%
FmlHLD [1]; [15]
  inhibition at 100 µM: 99%
FmlHLD [2]; Kd
  Kd: 2.1 µM

## CC(=O)N[C@@H]1[C@H](Oc2cccc(C#N)c2-c2cccc(NS(C)(=O)=O)c2)OC(CO)[C@H](O)[C@@H]1O (stereo partly drawn) [Compound 3079, N-((2S,3S,4R,5R)-2-((6-cyano-3′-(methylsulfonamido)-[1,1′-biphenyl]-2-yl)oxy)-4,5-dihydroxy-6-(hydroxymethyl)tetrahydro-2H-pyran-3-yl)acetamide]
FmlHLD [1]; [16]
  IC50: 0.11 µM
[3]
  SGF % remaining 6 h: 86.77%
[4]
  SIF % remaining 2 h: 100.00%
[5]
  Mouse liver microsomes (t1/12 min): >145 min
Mouse plasma stability
  Mouse plasma % remaining 2 h: 89.1%
Kinetic solubility; kinetic from dmso stock
  solubility kinetic: 196 µM (≈ 96.3 µg/mL)

## CC(=O)N[C@H]1[C@H](Oc2cccc(F)c2-c2cccc(NS(C)(=O)=O)c2)O[C@H](CO)[C@H](O)[C@@H]1O [Compound 3080, N-((2S,3R,4R,5R,6R)-2-((6-fluoro-3′-(methylsulfonamido)-[1,1′-biphenyl]-2-yl)oxy)-4,5-dihydroxy-6-(hydroxymethyl)tetrahydro-2H-pyran-3-yl)acetamide]
FmlHLD [1]; [16]
  IC50: 0.15 µM
[3]
  SGF % remaining 6 h: 91.95%
[4]
  SIF % remaining 2 h: 93.79%
[5]
  Mouse liver microsomes (t1/12 min): >145 min
Mouse plasma stability
  Mouse plasma % remaining 2 h: 89.1%
Kinetic solubility
  solubility kinetic: 197 µM (≈ 95.4 µg/mL)

## CC(=O)N[C@H]1[C@H](Oc2cccc(C)c2-c2cccc(NS(C)(=O)=O)c2)O[C@H](CO)[C@H](O)[C@@H]1O [Compound 3084, N-((2S,3R,4R,5R,6R)-4,5-dihydroxy-6-(hydroxymethyl)-2-((6-methyl-3′-(methylsulfonamido)-[1,1′-biphenyl]-2-yl)oxy)tetrahydro-2H-pyran-3-yl)acetamide]
FmlHLD [1]; IC50
  IC50: 0.12 µM
FmlHLD [1]; IC50 equated to a concentration, conversion of IC50 of 120 nM
  IC50: 0.12 µM
[3]
  SGF % remaining 6 h: 100.00%
[4]
  SIF % remaining 2 h: 100.00%
[5]
  Mouse liver microsomes (t1/12 min): >145 min
Mouse plasma stability
  Mouse plasma % remaining 2 h: 100.00%
Kinetic solubility
  solubility kinetic: 195 µM (≈ 93.7 µg/mL)
[6]
  Cmax: 7897 ng/mL
  calculated AUC: 6300 ng·h/mL
  compound exposure at 8 h: moderate compound exposure
  half-life, t1/2: 1.13 h

## CC(=O)N[C@H]1[C@H](Oc2cccc(C)c2-c2cccc(NS(=O)(=O)C3CC3)c2)O[C@H](CO)[C@H](O)[C@@H]1O [Compound 3086, N-((2S,3R,4R,5R,6R)-2-((3′-(cyclopropanesulfonamido)-6-methyl-[1,1′-biphenyl]-2-yl)oxy)-4,5-dihydroxy-6-(hydroxymethyl)tetrahydro-2H-pyran-3-yl)acetamide]
FmlHLD [1]
  inhibitory potency against FmlH, in words: retain the same activity as the methyl sulfonamides
FmlHLD [1]; [16]
  IC50: 0.12 µM
[3]
  SGF % remaining 6 h: 100.00%
[4]
  SIF % remaining 2 h: 100.00%
[5]
  Mouse liver microsomes (t1/12 min): >145 min
Mouse plasma stability
  Mouse plasma % remaining 2 h: 84.1%
Kinetic solubility
  solubility kinetic: 196 µM (≈ 99.3 µg/mL)
[7]
  bioavailability: < 1%
  renal clearance to the urine: low renal clearance to the urine
[7]; [17]
  clearance (Cl): 43.8 mL/min/kg
  t1/2: 1.46 h

## Cc1cccc(O[C@@H]2OC(CO)[C@H](O)[C@H](O)[C@@H]2NC(=O)C(F)(F)F)c1-c1cccc(NS(C)(=O)=O)c1 (stereo partly drawn) [Compound 3088, N-((2S,3S,4R,5R)-4,5-dihydroxy-6-(hydroxymethyl)-2-((6-methyl-3′-(methylsulfonamido)-[1,1′-biphenyl]-2-yl)oxy)tetrahydro-2H-pyran-3-yl)-2,2,2-trifluoroacetimidic acid]
FmlHLD [1]; [16]
  IC50: 0.11 µM
[3]
  SGF % remaining 6 h: 90.95%
[4]
  SIF % remaining 2 h: 89.15%
[5]
  Mouse liver microsomes (t1/12 min): >145 min
Mouse plasma stability
  Mouse plasma % remaining 2 h: 88.9%
Kinetic solubility; kinetic from dmso stock
  solubility kinetic: 164 µM (≈ 87.7 µg/mL)

## CC(=O)N[C@@H]1[C@H](Oc2cccc(C(F)(F)F)c2-c2cccc(NS(C)(=O)=O)c2)OC(CO)[C@H](O)[C@@H]1O (stereo partly drawn) [Compound 3090, N-((2S,3S,4R,5R)-4,5-dihydroxy-6-(hydroxymethyl)-2-((3′-(methylsulfonamido)-6-(trifluoromethyl)-[1,1′-biphenyl]-2-yl)oxy)tetrahydro-2H-pyran-3-yl)acetamide]
FmlHLD [1]
  inhibitory potency against FmlH, in words: highest potency of the compounds tested
FmlHLD [1]; IC50
  IC50: 0.085 µM
[3]
  SGF % remaining 6 h: 89.25%
[4]
  SIF % remaining 2 h: 91.9%
[5]
  Mouse liver microsomes (t1/12 min): >145 min
Mouse plasma stability
  Mouse plasma % remaining 2 h: 92.2%
Kinetic solubility; kinetic from dmso stock
  solubility kinetic: 197 µM (≈ 105 µg/mL)
[7]
  bioavailability: < 1%
  renal clearance to the urine: low renal clearance to the urine
[7]; [17]
  half-life: 69.6 min
[7]; rat plasma, 10 mg/kg PO or 3 mg/kg IV, read-out: clearance (Cl)
  clearance: 57 mL/min/kg

## O=c1c(O[C@@H]2O[C@H](CO)[C@H](O)[C@H](O)[C@H]2O)c(-c2ccc(O)c(O)c2)oc2cc(O)cc(O)c12 [QG, reference compound]
FmlHLD [1]; [15]
  inhibition at 100 µM: 14.4%
FmlHLD [2]; Kd
  Kd: 391 µM

## CC(=O)N[C@@H]1[C@@H](O[C@@H]2O[C@H](CO)[C@H](O)[C@H](O)[C@H]2O)[C@@H](O)[C@@H](CO)O[C@@H]1O [TF, Gal-β1-3-GalNAc-α, reference compound]
FmlHLD [1]; [15]
  inhibition at 100 µM: 15.5%
FmlHLD [1]; [11]
  inhibition at 100 µM: 15.5 ± 6.7%
FmlHLD [1]; soluble compound at 1 mM
  inhibition of FmlHLD binding to ds-BSM, in words: capable of inhibiting FmlHLD
FmlHLD [2]; Kd
  Kd: 248 µM
